Measured values: ChEMBL document CHEMBL3046320, “Synthesis and evaluation of antioxidant activity of 2-styrylchromones” (Med Chem Res, 2013)

Tested on: Radical scavenging activity
Assay: Antioxidant activity assessed as DPPH radical scavenging activity by DPPH method
Type: functional
Set-up: concentration or dose not given beside the values

Structure (SMILES) | Activity [%]
COc1ccc(/C=C/c2cc(=O)c3c(O)cccc3o2)cc1 | 71.1
COc1ccc(/C=C/c2cc(=O)c3cc(Br)ccc3o2)cc1 | 60.9
COc1ccc(/C=C/c2cc(=O)c3ccc(I)cc3o2)cc1 | 66.8
C/C(=C\c1cc(=O)c2cc(Cl)c(I)cc2o1)c1ccccc1 | 71.4
O=c1cc(/C=C/c2ccccc2)oc2cc(I)c(Cl)cc12 | 67.2
C/C(=C\c1cc(=O)c2ccccc2o1)c1ccccc1 | 65.8
C/C(=C\c1cc(=O)c2ccc(I)cc2o1)c1ccccc1 | 69.6
O=c1cc(/C=C/c2ccccc2)oc2cc(I)ccc12 | 65
COc1ccc(/C=C/c2cc(=O)c3cc(Cl)c(I)cc3o2)cc1 | 69.1
O=c1cc(/C=C/c2ccccc2)oc2ccccc12 | 64.4
